Experiment: in vitro absorption of foam/gas in fresh human venous blood
Type: in vitro ADME
Details: 0.5 ml aliquot in 20 ml stirred blood
Protocol: In vitro experiments were conducted to determine the absorption of foam made with different gases in fresh human venous blood.
A 20 ml polypropylene syringe barrel was prepared by puncturing its side wall with a relatively large hypodermic needle to make a hole approximately 1 mm in diameter. This hole was then covered by securing a piece of clear flexible vinyl sheet over it with clear adhesive tape. A small magnetic stirrer element was introduced into the syringe barrel and the plunger then replaced. 20 ml of human venous blood was then with withdrawn in the usual manner from a human subject using the specially prepared syringe fitted with a hypodermic needle.
The hypodermic needle was removed and the syringe then placed on a magnetic stirrer unit so that the magnetic element in the syringe thoroughly agitated the blood. […]
The needle of the 0.5 ml syringe was then introduced through the vinyl sheet on the side wall of the 20 ml syringe. […] It was determined that a distance of 45 intervals on this scale corresponded to an internal volume of in the manometer tubing of approximately 0.5 ml. […]
In this experiment, the air foam test was only observed for a few minutes after tF. However, further experiments have been conducted by the inventors, the results of which are not formally recorded here, involving foam with a percentage of nitrogen. […]

- Absorbed volume at tF: 0.46 mL
- tF (time until blood column stopped moving): 140 s
SMILES: O=O [Oxygen gas, oxygen]
